System: iPSC-derived cortical neurons
Type: cell-based
[1] = responders vs non-responders after 10 μM Bupropion, p<0.01
[2] = responders vs non-responders, 10 μM Bupropion, NS
[3] = responders vs non-responders, 10 μM Bupropion, p<0.01

CC(NC(C)(C)C)C(=O)c1cccc(Cl)c1 (stereo not drawn) [Bupropion, 3-Chloro-N-tert-butyl-β-keto-α-methylphenethylamin]
logFC PLCH2 [1]: −1.051 | logFC PLD5 [1]: −1.909 | logFC PLEKHD1 [1]: −3.283 | logFC PLPP4 [1]: −0.9989 | logFC PODN [1]: −1.12 | logFC POLR2J3 [1]: −0.756 | logFC POU4F1 [1]: −1.728 | logFC PRCD [1]: −1.032 | logFC PRPH [1]: −2.033 | logFC PRSS33 [1]: −1.593 | logFC PSD4 [1]: −0.7234 | logFC PSMB8 [1]: −1.14 | logFC PSMB9 [1]: −1.682 | logFC PTGDS [1]: −1.612 | logFC PTGER2 [1]: −2.59 | logFC RAB42 [1]: −0.5093 | logFC RBMS3 [1]: −0.8065 | logFC RBP1 [1]: −0.6676 | logFC RPH3A [1]: −2.057 | logFC RSAD2 [1]: −1.646 | logFC S100B [1]: −1.744 | logFC SAMD9 [1]: −1.373 | logFC SAMD9L [1]: −1.954 | logFC SH3TC2 [1]: −1.437 | logFC SKOR2 [1]: −2.986 | logFC SLC2A1 [1]: −0.6362 | logFC SLC4A4 [1]: −1.35 | logFC SLC38A3 [1]: −0.8613 | logFC SMPD1 [1]: −0.5833 | logFC SST [1]: −1.012 | logFC SUN2 [1]: −0.4523 | logFC SUSD1 [1]: −0.629 | logFC SYNC [1]: −1.688 | logFC TAF1C [1]: −0.387 | logFC TAP1 [1]: −0.8369 | logFC TAP2 [1]: −0.8068 | logFC TBC1D2 [1]: −0.6958 | logFC TF [1]: −1.257 | logFC THBS2 [1]: −1.7 | logFC TLR6 [1]: −1.138 | logFC TLX1 [1]: −2.764 | logFC TLX3 [1]: −1.593 | logFC TMC3 [1]: −2.021 | logFC TMEM175 [1]: −0.5016 | logFC TMEM176A [1]: −1.203 | logFC TMEM176B [1]: −1.184 | logFC TNFRSF14 [1]: −1.091 | logFC TRAF1 [1]: −0.9274 | logFC TREM1 [1]: −2.481 | logFC TRIM8 [1]: −0.2802 | logFC TRMT9B [1]: −0.6888 | logFC TRPV2 [1]: −1.594 | logFC TSHZ3 [1]: −1.109 | logFC USH1C [1]: −1.858 | logFC USP18 [1]: −0.9659 | logFC VLDLR [1]: −0.4024 | logFC VSTM2B [1]: −1.079 | logFC ZFPM1 [1]: −0.5127 | logFC ZNF575 [1]: −0.87 | logFC ADAMTS9 expression [2]: 0.9659 | logFC ADGRE5 expression [2]: 0.9432 | logFC AMMECR1 expression [2]: 0.7173 | logFC ANKRD1 expression [2]: 2.712 | logFC ANKRD18A expression [2]: 1.155 | logFC ANKRD33B expression [2]: 0.8016 | logFC ANLN expression [2]: 0.911 | logFC AP3B1 expression [2]: 0.7614 | logFC ARHGAP10 expression [2]: 1.24 | logFC ARHGAP11A expression [2]: 0.7121 | logFC ARHGAP19 expression [2]: 0.5865 | logFC ARL11 expression [2]: 0.8189 | logFC BAX expression [2]: 0.4774 | logFC BUB1 expression [2]: 0.6384 | logFC C18orf54 expression [2]: 0.7328 | logFC CD53 expression [2]: 1.712 | logFC CDCA7 expression [2]: 0.949 | logFC CDK1 expression [2]: 0.9851 | logFC CDV3 expression [2]: 0.7482 | logFC CENPA expression [2]: 1.025 | logFC CENPH expression [2]: 0.8278 | logFC CENPW expression [2]: 0.7956 | logFC CHEK2 expression [2]: 0.7669 | logFC CHMP4C expression [2]: 0.6773 | logFC CHTF18 expression [2]: 0.4356 | logFC CKS1B expression [2]: 0.5869 | logFC CKS2 expression [2]: 0.7778 | logFC CNN1 expression [2]: 0.8796 | logFC COL17A1 expression [2]: 1.832 | logFC CPVL expression [2]: 0.8555 | logFC CRYZ expression [2]: 1.044 | logFC CSF3R expression [2]: 2.81 | logFC DAG1 expression [2]: 0.5339 | logFC DCP2 expression [2]: 0.7702 | logFC DEPDC1 expression [2]: 1.005 | logFC DHRS2 expression [2]: 3.271 | logFC DIAPH3 expression [2]: 0.9363 | logFC DLGAP5 expression [2]: 0.8304 | logFC DLX4 expression [2]: 1.485 | logFC DLX5 expression [2]: 2.138 | logFC DNMBP expression [2]: 0.5323 | logFC DSG2 expression [2]: 0.746 | logFC DSG3 expression [2]: 2.297 | logFC DSP expression [2]: 1.327 | logFC DUSP6 expression [2]: 0.9289 | logFC EDA2R expression [2]: 0.569 | logFC EFHD1 expression [2]: 0.872 | logFC EGLN3 expression [2]: 1.216 | logFC ELK3 expression [2]: 0.9378 | logFC EME1 expression [2]: 0.7814 | logFC EPHA7 expression [2]: 1.592 | logFC ERLIN1 expression [2]: 0.5945 | logFC ESAM expression [2]: 1.688 | logFC EXOC3L2 expression [2]: 1.012 | logFC FAM72A expression [2]: 1.123 | logFC FAM72B expression [2]: 0.9318 | logFC FAS expression [2]: 1.079 | logFC FBXO5 expression [2]: 0.7533 | logFC FGF23 expression [2]: 1.468 | logFC FNDC1 expression [2]: 0.9667 | logFC FOSL1 expression [2]: 1.137 | logFC FOXL1 expression [2]: 1.191 | logFC FUT10 expression [2]: 0.6404 | logFC GNPNAT1 expression [2]: 1.06 | logFC GTF2H3 expression [2]: 0.8228 | logFC HACD2 expression [2]: 0.8389 | logFC HAT1 expression [2]: 0.7547 | logFC HDAC1 expression [2]: 0.4991 | logFC HHIPL2 expression [2]: 1.368 | logFC HIBADH expression [2]: 0.5725 | logFC HMGB2 expression [2]: 0.5953 | logFC HMMR expression [2]: 0.9939 | logFC HNMT expression [2]: 1.877 | logFC IMPACT expression [2]: 0.7315 | logFC INPP5D expression [2]: 1.208 | logFC IQGAP3 expression [2]: 0.6692 | logFC ITGA2 expression [2]: 0.6822 | logFC KIAA1217 expression [2]: 0.8875 | logFC KIF2C expression [2]: 0.6989 | logFC KIF11 expression [2]: 0.7863 | logFC KIF14 expression [2]: 0.7995 | logFC KIF20B expression [2]: 0.8251 | logFC KIF23 expression [2]: 0.7114 | logFC KRT8 expression [2]: 1.26 | logFC KRT18 expression [2]: 1.596 | logFC L2HGDH expression [2]: 0.7542 | logFC LAMC1 expression [2]: 0.8644 | logFC LPP expression [2]: 0.7521 | logFC LRP4 expression [2]: 1.051 | logFC LRRC15 expression [2]: 0.6532 | logFC LTA4H expression [2]: 0.6494 | logFC MAD2L1 expression [2]: 0.8373 | logFC MAN2A1 expression [2]: 0.8316 | logFC MATN3 expression [2]: 0.9618 | logFC MDM2 expression [2]: 0.6788 | logFC MELK expression [2]: 0.849 | logFC MGST1 expression [2]: 0.9354 | logFC MICB expression [2]: 0.9474 | logFC MSX2 expression [2]: 1.687 | logFC MT1E expression [2]: 0.1751 | logFC MTBP expression [2]: 0.7803 | logFC MUC4 expression [2]: 0.8705 | logFC NDC1 expression [2]: 0.8188 | logFC NDC80 expression [2]: 0.8291 | logFC NEMP1 expression [2]: 0.791 | logFC NGF expression [2]: 0.7928 | logFC NLRP1 expression [2]: 1.235 | logFC NOSTRIN expression [2]: 1.169 | logFC NPPB expression [2]: 1.671 | logFC NUF2 expression [2]: 0.7214 | logFC NUP37 expression [2]: 0.7592 | logFC NUPR1 expression [2]: 1.745 | logFC ORC6 expression [2]: 0.8019 | logFC PADI1 expression [2]: 0.9659 | logFC PGM2 expression [2]: 0.8787 | logFC PLAU expression [2]: 2.302 | logFC PMP22 expression [2]: 1.525 | logFC POLQ expression [2]: 0.7494 | logFC PPP1R13L expression [2]: 0.8159 | logFC PRDX6 expression [2]: 0.5898 | logFC PROCR expression [2]: 1.393 | logFC PRR11 expression [2]: 0.6089 | logFC PTGR1 expression [2]: 0.6824 | logFC PYGL expression [2]: 0.8577 | logFC RAD51AP1 expression [2]: 1.085 | logFC RBMS1 expression [2]: 0.7861 | logFC RPL22L1 expression [2]: 1.141 | logFC RPS27L expression [2]: 0.7459 | logFC RREB1 expression [2]: 0.5116 | logFC RRM2B expression [2]: 0.7867 | logFC RUNX2 expression [2]: 0.8924 | logFC S1PR5 expression [2]: 1.906 | logFC SELENOV expression [2]: 0.8135 | logFC SEM1 expression [2]: 0.5019 | logFC SEPSECS expression [2]: 0.7254 | logFC SEPTIN10 expression [2]: 0.7236 | logFC SERPINE1 expression [2]: 2.019 | logFC SESN1 expression [2]: 0.7238 | logFC SFT2D1 expression [2]: 0.6487 | logFC SLC22A31 expression [2]: 0.9625 | logFC SLC47A1 expression [2]: 2.056 | logFC SPDL1 expression [2]: 0.7492 | logFC SPOCD1 expression [2]: 1.33 | logFC SPP1 expression [2]: 1.215 | logFC STIL expression [2]: 0.759 | logFC STX3 expression [2]: 0.5017 | logFC SWAP70 expression [2]: 0.8869 | logFC TAF4B expression [2]: 0.9582 | logFC TFPI2 expression [2]: 1.367 | logFC TGIF1 expression [2]: 0.8371 | logFC TM7SF3 expression [2]: 0.5627 | logFC TMTC1 expression [2]: 1.156 | logFC TNFRSF10D expression [2]: 0.8463 | logFC TNFRSF12A expression [2]: 0.7449 | logFC TOP2A expression [2]: 0.7201 | logFC TPM1 expression [2]: 0.7857 | logFC TRAM2 expression [2]: 0.5417 | logFC TRIAP1 expression [2]: 0.7343 | logFC TTK expression [2]: 0.82 | logFC UBE2C expression [2]: 0.5692 | logFC USP28 expression [2]: 0.4989 | logFC USP53 expression [2]: 0.8262 | logFC VRK1 expression [2]: 0.7229 | logFC VWDE expression [2]: 1.176 | logFC WEE1 expression [2]: 1.13 | logFC WNT9B expression [2]: 0.5972 | logFC WWC2 expression [2]: 0.7083 | logFC XPO1 expression [2]: 0.7396 | logFC YBX3 expression [2]: 0.5165 | logFC ZGRF1 expression [2]: 0.9121 | logFC ZIC2 expression [2]: 0.7767 | logFC ADAL expression [3]: 0.3007 | logFC ANKRD27 expression [3]: 0.3035 | logFC ARHGEF26 expression [3]: 0.4633 | logFC ATAD5 expression [3]: 0.5442 | logFC BAG4 expression [3]: 0.4071 | logFC CCDC150 expression [3]: 0.6042 | logFC CDH6 expression [3]: 0.9224 | logFC CHML expression [3]: 0.4888 | logFC DHFR expression [3]: 0.5987 | logFC DLX2 expression [3]: 0.9412 | logFC DMRTA1 expression [3]: 0.858 | logFC DNA2 expression [3]: 0.5431 | logFC EIF1AX expression [3]: 0.5493 | logFC F8 expression [3]: 0.4608 | logFC FBXO22 expression [3]: 0.2957 | logFC FREM2 expression [3]: 0.865 | logFC GPC3 expression [3]: 1.257 | logFC HAUS6 expression [3]: 0.5025 | logFC HLA-DMA expression [3]: 0.9185 | logFC ITGA6 expression [3]: 0.5208

Reference: patent US20230094922A1, “METHODS OF THERAPEUTIC PROGNOSTICATION” (GENETIKAPLUS LTD., priority 2020, published 2023)
